From patent publication US8853215B2, “Derivatives of N-acyl-N′-phenylpiperazine useful (inter alia) for the prophylaxis or treatment of diabetes” (Takeda Pharmaceutical Company Limited, priority 2009, dated 2014)

Legend:
human RBP4 = human RBP4 (Homo sapiens (Human), UniProt P02753); experiment: Binding assay by Retinol-RBP4-TTR ELISA
Procedure, shortened: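 Biotinylated human TTR was captured on streptavidin plates, then His-tagged human RBP4 was added with compound premixed with 50 nM retinol (8 doses). Binding ran 2 h at room temperature in 50 mM Tris-HCl, 150 mM NaCl, 0.005% Tween 20, 1 mM DTT, 0.1% BSA, read by luminescence. Inhibition was scaled between retinol+DMSO and retinol-free controls, and IC50 fitted.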

RBP4 = RBP4 (Rattus norvegicus (Rat), UniProt P04916); experiment: Single administration test in Wistar fatty rats, plasma RBP4 by ELISA; assay type: in vivo; settings: male Wistar fatty rats, 10 mg/kg oral single dose, mean±SD
Method: The action of the compounds of the present invention to lower plasma RBP4 level was evaluated using the animal model shown below.
Male Wistar fatty rats (fa/fa) were bred in Takeda Pharmaceutical Company Limited and maintained on normal diet (CE2, CLAE Japan, Inc.) and tap water. Animals were housed in a temperature-controlled room adjusted to a 12-hour light/12-hour dark cycle beginning at 7:00 and 19:00, respectively. All procedures were conducted according to the experimental animal care use committee of Takeda Pharmaceutical Company.
Male 13-43-week-old Wistar fatty rats were divided into groups randomly. Compounds were suspended in 0.5% (w/v) methylcellulose in water and given orally to Wistar fatty rats at a dose of 10 mg/10 mL/kg of body weight (3-5 rats per group). Blood samples were obtained from tail vein with sodium heparin as an anticoagulant at time 0 hr (just before the administration), 4 hr, 7 hr, and 24 hr after the administration, followed by plasma separation by centrifugation. Plasma RBP4 levels were measured by enzyme-linked immunosorbent assay described in the following section.
Plasma samples were analyzed in duplicate for RBP4 by an enzyme-linked immunosorbent assay. Mouse recombinant RBP4 (Takeda Pharmaceutical Company Limited) was used as standards, and the assay range was 0.313-20 ng/ml. Samples were diluted 10,000-fold with phosphate-buffered saline (PBS) (Sigma) containing 10% (w/v) BlockAce (Dainippon Sumitomo Pharma Co., Ltd). Rabbit anti-RBP4 polyclonal antibody (100 μL/well of 50 μg/mL, Hokudo Co, Ltd) was incubated in a 96-well plate (Nalge Nunc International K.K.) for overnight at 4° C. Subsequently, the plates were washed with PBS-T (Wako Pure Chemical Industries, Ltd.) and blocked with PBS containing 25% BlockAce for 1 hr at room temperature. After another washing with PBS-T, samples and standards were applied to the well, and the plates were incubated for 2 hr at room temperature. After a washing the wells, peroxidase-labeled (Dojindo Laboratories) anti-RBP4 (100 μL/well) was added to the wells, and then the plates were incubated for 1 hr at room temperature. After a final washing with PBS-T, substrate solution 3,3,5,5-tetramethylbenzidine (Sigma) was added to the wells, and the plates were placed in the dark for 5-20 min at room temperature. The reaction was stopped with 0.5 M sulphuric acid and the optical density was measured with a spectrophotometer at 450 nm. The changes in plasma RBP4 levels were expressed as % of initial/Control. All data are presented as mean±SD.

inhibition at 10 µM (human RBP4; at 10 μM compound, read-out: human RBP4 binding inhibitory activity(% at 10 μM)): 100%
IC50 (human RBP4; retinol 50 nM, His-tagged human RBP4, biotinylated human TTR, read-out: human RBP4 binding inhibitory activity (IC50 nM)): 38 nM
RBP4 (% of initial/Control) 0 hr (RBP4; 0 hr (just before the administration)): 100.0 ± 13.8 % of initial/Control
RBP4 (% of initial/Control) 4 hr (RBP4; 4 hr after administration): 59.6 ± 14.5 % of initial/Control
RBP4 (% of initial/Control) 7 hr (RBP4; 7 hr after administration): 58.5 ± 5.6 % of initial/Control
RBP4 (% of initial/Control) 24 hr (RBP4; 24 hr after administration): 106.0 ± 16.1 % of initial/Control
Structure (SMILES): CC(C)(C)c1ccccc1N1CCN(C(=O)C(=O)O)CC1 [Example 44, 2-[4-(2-tert-Butylphenyl)piperazin-1-yl]-2-oxoacetic acid]
